Experimental data taken from US10308686B2, “Gamma-AApeptides with potent and broad-spectrum antimicrobial activity” (priority 2012, dated 2019).
In brackets after ≈: the same amount, converted by molar mass. Like-named read-outs stand apart in the source and are kept apart here.

Legend:
[1] = test system: methicillin-resistant S. aureus (ATCC 33592)
[2] = test system: multi-drug resistant S. epidermidis (RP62A)
[3] = test system: vancomycin-resistant E. faecalis (ATCC 700802)
[4] = test system: K. pneumoniae (ATCC 13383)
[5] = test system: multi-drug resistant P. aeruginosa ATCC 27853
[6] = test system: human red blood cells (hRBC's); assay: Hemolysis assay; assay type: cell-based
Experimental: Freshly drawn human red blood cells (hRBC's) with additive K2 EDTA (spray-dried) were washed with PBS buffer several times and centrifuged at 1000 g for 10 min until a clear supernatant was observed. The hRBC's were resuspended in 1×PBS to get a 5% v/v suspension. Two-fold serial dilutions of γ-AApeptides dissolved in 1×PBS from 250 μg/ml through 1.6 μg/ml were added to a sterile 96-well plate to make up a total volume of 50 μL in each well. Then 50 μL of 5% v/v hRBC solution was added to make up a total volume of 100 μL in each well. The 0% hemolysis point and 100% hemolysis point were determined in 1×PBS and 0.2% Triton-X-100, respectively (Patch et al., 2003). The plate was then incubated at 37° C. for 1 h and centrifuged at 3500 rpm for 10 min. The supernatant (30 μL) was diluted with 100 μL of 1×PBS and absorption was detected by measuring the optical density at 360 nm by Biotek Synergy HT microtiter plate reader. % hemolysis was determined by the following equation: % hemolysis=(Abssample−AbsPBS)/(AbsTriton−AbsPBS)×100 H50 is the concentration of γ-AApeptide amphiphiles at which 50% hemolysis was observed. The highest concentration tested in the hemolytic assay was 500 μg/ml. 7. Fluorescence Microscopy
The sequences shown in FIG. 12 were also evaluated via hemolytic assays. Freshly drawn human red blood cells (hRBC's) with additive K2 EDTA (spray-dried) were washed with PBS buffer several times and centrifuged at 1000 g for 10 min until a clear supernatant was observed. The hRBC's were resuspended in 1×PBS to get a 5% v/v suspension. Two-fold serial dilutions of lipidated γ-AApeptides dissolved in 1×PBS from 1 mg/ml through 6.3 μg/ml were added to sterile 96-well plates to make up a total volume of 50 μL in each well. Then 50 μL of 5% v/v hRBC solution was added to make up a total volume of 100 μL in each well. The 0% hemolysis point and 100% hemolysis point were determined in 1×PBS and 0.2% Triton-X-100, respectively (Patch et al., 2003). The plate was then incubated at 37° C. for 1 h and centrifuged at 3500 rpm for 10 min. The supernatant (30 μL) was diluted with 100 μL of 1×PBS and absorption was detected by measuring the optical density at 360 nm with a Biotek Synergy HT microtiter plate reader. % hemolysis was determined by the following equation: % hemolysis=(Abs sample−Abs PBS)/(Abs Triton−Abs PBS)×100

[7] = Table 5, first value of H10/H50
[8] = Table 5, second value of H10/H50

## NCCCC[C@H](N)CN(CC(=O)N[C@@H](CCCCN)CN(CC(=O)N[C@@H](CCCCN)CN(CC(N)=O)C(=O)CCc1ccccc1)C(=O)CCc1ccccc1)C(=O)CCc1ccccc1 [γ1]
E. coli (JM109)
  MIC, E. coli: >100 µg/mL
[1]; Table 1
  MIC, S. aureus (methicillin-resistant): >100 µg/mL
[2]; Table 1
  MIC, S. epidermidis (multi-drug resistant): >100 µg/mL
[3]; Table 1
  MIC, E. faecalis (vancomycin-resistant): >100 µg/mL
B. subtilis (BR151)
  MIC, B. subtilis: >100 µg/mL
[4]
  MIC, K. pneumoniae (causing pneumonia): >100 µg/mL

## NCCCC[C@H]1CN(C(=O)CCc2ccccc2)CC(=O)N[C@@H](CCCCN)CN(C(=O)CCc2ccccc2)CC(=O)N[C@@H](CCCCN)CN(C(=O)CCc2ccccc2)CC(=O)N[C@@H](CCCCN)CN(C(=O)CCc2ccccc2)CC(=O)N[C@@H](Cc2ccccc2)CN(CC(N)=O)C(=O)CCC(=O)N1 [HW-B-3]
[1]; Table 5
  MIC, S. aureus (MRSA): > 50 µg/mL
[5]; Table 5
  MIC, P. aeruginosa: > 50 µg/mL
[2]; Table 5
  MIC, S. epidermidis (MRSE): > 50 µg/mL
[3]; Table 5
  MIC, E. faecalis (VREF): > 50 µg/mL
[6]; [7]
  Hemolysis H10: > 500 µg/mL
[6]; [8]
  Hemolysis H50: > 500 µg/mL
C. albicans (ATCC 10231); ATCC 10231
  MIC, Fungus C. albicans: > 50 µg/mL
B. subtilis (BR151)
  MIC, B. subtilis: 25000 to 50000 µg/mL
[4]
  MIC, K. pneumoniae: > 50 µg/mL

## NCCCC[C@H]1CN(C(=O)CCc2ccccc2)CC(=O)N[C@@H](CCCCN)CN(C(=O)CCc2ccccc2)CC(=O)N[C@@H](CCCCN)CN(C(=O)CCc2ccccc2)CC(=O)N[C@@H](CCCCN)CN(C(=O)CCc2ccccc2)CC(=O)N[C@@H](CCCCN)CN(C(=O)CCc2ccccc2)CC(=O)N[C@@H](Cc2ccccc2)CN(CC(N)=O)C(=O)CCC(=O)N1 [HW-B-4]
[1]; Table 5
  MIC, S. aureus (MRSA): > 50 µg/mL
[5]; ATCC 27853
  MIC, P. aeruginosa: 20 µg/mL (≈ 11.1 µM)
[2]; Table 5
  MIC, S. epidermidis (MRSE): 10 µg/mL (≈ 5.54 µM)
[3]; Table 5
  MIC, E. faecalis (VREF): 20 µg/mL (≈ 11.1 µM)
[6]
  Hemolysis H10: > 500 µg/mL
  Hemolysis H50: > 500 µg/mL
C. albicans (ATCC 10231); ATCC 10231
  MIC, Fungus C. albicans: > 50 µg/mL
B. subtilis (BR151)
  MIC, B. subtilis: 10 µg/mL (≈ 5.54 µM)
[4]
  MIC, K. pneumoniae: > 50 µg/mL

## CC(C)CCC(=O)N1CC(=O)N[C@@H](Cc2ccccc2)CN(C(=O)CCC(C)C)CC(=O)N[C@@H](Cc2ccccc2)CN(C(=O)CCC(C)C)CC(=O)N[C@@H](CCCCN)CN(C(=O)CCc2ccccc2)CC(=O)N[C@@H](CCCCN)CN(C(=O)CCc2ccccc2)CC(=O)N[C@@H](CCCCN)CN(C(=O)CCc2ccccc2)CC(=O)N[C@@H](Cc2ccccc2)CN(CC(N)=O)C(=O)CCC(=O)N[C@@H](Cc2ccccc2)C1 [HW-B-14]
[1]; ATCC 33592
  MIC, S. aureus (MRSA): 3 µg/mL (≈ 1.45 µM)
[2]; multi-drug resistant (RP62A)
  MIC, S. epidermidis (MRSE): 2 µg/mL (≈ 0.969 µM)
[3]; ATCC 700802
  MIC, E. faecalis (VREF): 5 µg/mL (≈ 2.42 µM)
[6]; [7]
  Hemolysis H10: 45 µg/mL
[6]; [8]
  Hemolysis H50: 300 µg/mL
C. albicans (ATCC 10231); ATCC 10231
  MIC, Fungus C. albicans: 4 µg/mL (≈ 1.94 µM)
[4]
  MIC, K. pneumoniae: 10 µg/mL (≈ 4.84 µM)

## CC(C)CCC(=O)N1CC(=O)N[C@@H](CCCCN)CN(C(=O)CCc2ccccc2)CC(=O)N[C@@H](CCCCN)CN(C(=O)CCc2ccccc2)CC(=O)N[C@@H](Cc2ccccc2)CN(CC(N)=O)C(=O)CCC(=O)N[C@@H](CCCCN)CN(C(=O)CCc2ccccc2)CC(=O)N[C@@H](CCCCN)CN(C(=O)CCc2ccccc2)CC(=O)N[C@@H](CCCCN)CN(C(=O)CCc2ccccc2)CC(=O)N[C@@H](Cc2ccccc2)C1 [HW-B-11]
[1]; ATCC 33592
  MIC, S. aureus (MRSA): 5 µg/mL (≈ 2.39 µM)
[5]; Table 5
  MIC, P. aeruginosa: 10 µg/mL (≈ 4.77 µM)
[2]; multi-drug resistant (RP62A)
  MIC, S. epidermidis (MRSE): 2 µg/mL (≈ 0.955 µM)
[3]; ATCC 700802
  MIC, E. faecalis (VREF): 15 µg/mL (≈ 7.16 µM)
[6]; [7]
  Hemolysis H10: 200 µg/mL
[6]; [8]
  Hemolysis H50: > 500 µg/mL
C. albicans (ATCC 10231); Table 5
  MIC, Fungus C. albicans: 5 µg/mL (≈ 2.39 µM)
[4]
  MIC, K. pneumoniae: 20 µg/mL (≈ 9.55 µM)

## NCCCC[C@H]1CN(C(=O)CCc2ccccc2)CC(=O)N[C@@H](CCCCN)CN(C(=O)CCc2ccccc2)CC(=O)N[C@@H](CCCCN)CN(C(=O)CCc2ccccc2)CC(=O)N[C@@H](CCCCN)CN(C(=O)CCc2ccccc2)CC(=O)N[C@@H](CCCCN)CN(C(=O)CCc2ccccc2)CC(=O)N[C@@H](CCCCN)CN(C(=O)CCc2ccccc2)CC(=O)N[C@@H](Cc2ccccc2)CN(CC(N)=O)C(=O)CCC(=O)N1 [HW-B-5]
[1]; Table 5
  MIC, S. aureus (MRSA): 25-50
[5]; ATCC 27853
  MIC, P. aeruginosa: 18 µg/mL (≈ 8.53 µM)
[2]; Table 5
  MIC, S. epidermidis (MRSE): 8 µg/mL (≈ 3.79 µM)
[3]; Table 5
  MIC, E. faecalis (VREF): 20 µg/mL (≈ 9.48 µM)
[6]
  Hemolysis H10: > 500 µg/mL
  Hemolysis H50: > 500 µg/mL
C. albicans (ATCC 10231); ATCC 10231
  MIC, Fungus C. albicans: > 50 µg/mL
B. subtilis (BR151)
  MIC, B. subtilis: 5 µg/mL (≈ 2.37 µM)
[4]
  MIC, K. pneumoniae: > 50 µg/mL

## CC(C)CCC(=O)N1CC(=O)N[C@@H](CCCCN)CN(C(=O)CCc2ccccc2)CC(=O)N[C@@H](CCCCN)CN(C(=O)CCc2ccccc2)CC(=O)N[C@@H](Cc2ccccc2)CN(CC(N)=O)C(=O)CCC(=O)N[C@@H](CCCCN)CN(C(=O)CCc2ccccc2)CC(=O)N[C@@H](CCCCN)CN(C(=O)CCc2ccccc2)CC(=O)N[C@@H](CCCCN)CN(C(=O)CCc2ccccc2)CC(=O)N[C@@H](Cc2ccccc2)C1 [γAA4]
E. coli (JM109)
  MIC, E. coli: 3.1 to 6.3 µg/mL
[1]; ATCC 33592
  MIC, S. aureus (methicillin-resistant): 3.1 to 6.3 µg/mL
[2]; multi-drug resistant (RP62A)
  MIC, S. epidermidis (multi-drug resistant): 2 µg/mL (≈ 0.955 µM)
[3]; ATCC 700802
  MIC, E. faecalis (vancomycin-resistant): 12.5 to 25 µg/mL
[6]; Table 3
  Hemolysis (H50): >500 µg/mL
C. albicans (ATCC 10231); ATCC 10231
  MIC, Fungi C. albicans: 3 to 6 µg/mL
B. subtilis (BR151)
  MIC, B. subtilis: 2 µg/mL (≈ 0.955 µM)
[4]
  MIC, K. pneumoniae (causing pneumonia): >100 µg/mL

## CC(C)CCC(=O)N1CC(=O)N[C@@H](Cc2ccccc2)CN(C(=O)CCC(C)C)CC(=O)N[C@@H](CCCCN)CN(C(=O)CCc2ccccc2)CC(=O)N[C@@H](CCCCN)CN(C(=O)CCc2ccccc2)CC(=O)N[C@@H](CCCCN)CN(C(=O)CCc2ccccc2)CC(=O)N[C@@H](CCCCN)CN(C(=O)CCc2ccccc2)CC(=O)N[C@@H](Cc2ccccc2)CN(CC(N)=O)C(=O)CCC(=O)N[C@@H](Cc2ccccc2)C1 [HW-B-13]
[1]; Table 5
  MIC, S. aureus (MRSA): 1
[2]; Table 5
  MIC, S. epidermidis (MRSE): 2 µg/mL (≈ 0.962 µM)
[3]; Table 5
  MIC, E. faecalis (VREF): 5 µg/mL (≈ 2.4 µM)
[6]
  Hemolysis H10: 40 µg/mL
  Hemolysis H50: 100 µg/mL
C. albicans (ATCC 10231); ATCC 10231
  MIC, Fungus C. albicans: 2 µg/mL (≈ 0.962 µM)
[4]
  MIC, K. pneumoniae: 8 µg/mL (≈ 3.85 µM)

## NCCCC[C@H](N)CN(CC(=O)N[C@@H](CCCCN)CN(CC(=O)N[C@@H](CCCCN)CN(CC(=O)N[C@@H](CCCCN)CN(CC(=O)N[C@@H](CCCCN)CN(CC(N)=O)C(=O)CCc1ccccc1)C(=O)CCc1ccccc1)C(=O)CCc1ccccc1)C(=O)CCc1ccccc1)C(=O)CCc1ccccc1 [γ2]
E. coli (JM109)
  MIC, E. coli: 25 µg/mL (≈ 16.3 µM)
[1]; Table 1
  MIC, S. aureus (methicillin-resistant): >100 µg/mL
[2]; Table 1
  MIC, S. epidermidis (multi-drug resistant): >100 µg/mL
[3]; Table 1
  MIC, E. faecalis (vancomycin-resistant): >100 µg/mL
B. subtilis (BR151)
  MIC, B. subtilis: 5 µg/mL (≈ 3.26 µM)
[4]
  MIC, K. pneumoniae (causing pneumonia): >100 µg/mL

## CC(C)CCC(=O)N1CC(=O)N[C@@H](CCCCN)CN(C(=O)CCc2ccccc2)CC(=O)N[C@@H](Cc2ccccc2)CN(CC(N)=O)C(=O)CCC(=O)N[C@@H](CCCCN)CN(C(=O)CCc2ccccc2)CC(=O)N[C@@H](Cc2ccccc2)CN(C(=O)CCC(C)C)CC(=O)N[C@@H](CCCCN)CN(C(=O)CCc2ccccc2)CC(=O)N[C@@H](CCCCN)CN(C(=O)CCc2ccccc2)CC(=O)N[C@@H](Cc2ccccc2)C1 [HW-B-12]
[1]; Table 5
  MIC, S. aureus (MRSA): 6 µg/mL (≈ 2.88 µM)
[5]; ATCC 27853
  MIC, P. aeruginosa: > 50 µg/mL
[2]; Table 5
  MIC, S. epidermidis (MRSE): 5 µg/mL (≈ 2.4 µM)
[3]; Table 5
  MIC, E. faecalis (VREF): 8 µg/mL (≈ 3.85 µM)
[6]
  Hemolysis H10: 150 µg/mL
  Hemolysis H50: 450 µg/mL
C. albicans (ATCC 10231); ATCC 10231
  MIC, Fungus C. albicans: 5 µg/mL (≈ 2.4 µM)
B. subtilis (BR151)
  MIC, B. subtilis: 5 µg/mL (≈ 2.4 µM)
[4]
  MIC, K. pneumoniae: 5 µg/mL (≈ 2.4 µM)
